Assays:
C57BL/6N mice = assay: Evaluation of NIK-333 and ATRA for toxicity in mice (Example 2); format: in vivo, mouse; settings: oral once per day for 2 weeks, versus soybean oil control
Experimental: 7-Week old C57BL/6N mice (Charles River Japan) were given with MK-333 or ATRA once per day for 2 weeks by forcible continuous oral administration. After completion of the test, S-TG concentrations and testis weights of individual mice were measured. To the control group, soybean oil was administered.

rats = settings: literature; cited from earlier work
mice = settings: literature; cited from earlier work
[1] = tested on: SD male rats on high fat diet (HFD32); assay: Action of NIK-333 for decreasing hepatic lipid amount in high fat diet rats (Example 1); format: in vivo, rat; settings: oral once a day for 8 weeks, serum
Text: For the experiment, 6-week old SD male rats (Charles River Japan) were used. HFD32 (Clea Japan) was used for the high fat diet group, and CE-2 (Clea Japan) was used for the normal control group. The feeding was restricted to 25±3 g for both of the groups. Administration of NIK-333 was started at the same time as the start of the loading of the high fat diet, and the drug was given once a day for 8 weeks by forcible continuous oral administration. After completion of the test, each liver was extracted, and triglyceride (H-TG) amount and cholesterol (H-T-chol) amount in the liver were measured. Hematoxylin-eosin (H.E.) and Oil Red O (O.R.) staining samples were prepared from the extracted liver, and histopathological examination was performed. Degree of fatty degeneration of the liver was graded into five categories on the basis of the examination of the H.E. staining sample, and scores were assigned. Further, from the O.R. staining sample, O.R. positive area in the liver sample area was calculated by using an image analyzer. Furthermore, triglyceride (S-TG), total cholesterol (S-T-chol), alanine aminotransferase (S-ALT), and aspartate aminotransferase (S-AST) levels in serum were measured.

recurrence of hepatoma = settings: clinical, during the administration; cited from earlier work

Row | Compound | S-TG concentration (FIG. 5) (C57BL/6N mice) | testis weight (FIG. 6) (C57BL/6N mice) | testis weight (rats) | testis weight (mice) | lipid concentration in blood (S-TG, S-T-chol; FIG. 3) [1] | liver function failure or other adverse effects caused by retinoids (recurrence of hepatoma)
1 | CC1=C(/C=C/C(C)=C/C=C/C(C)=C/C(=O)O)C(C)(C)CCC1 [ATRA, all-trans-retinoic acid] | increases the S-TG concentration | markedly decreases testis weight | decreased testis weight | decreased testis weight | – | –
2 | CC(C)=CCC/C(C)=C/CC/C(C)=C/C=C/C(C)=C/C(=O)O [NIK-333, (2E,4E,6E,10E)-3,7,11,15-tetramethyl-2,4,6,10,14-hexadecapentaenoic acid] | does not affect the concentration | does not affect the weight | – | – | without affecting lipid concentration in blood | not substantially observed

Source: patent US8673976B2, “Medicament for prophylactic and/or therapeutic treatment of hepatic steatosis or non-alcoholic steatohepatitis” (Kowa Company, Ltd., priority 2007, dated 2014)
